From US9433580B2 (priority 2011, dated 2016)

System: Pseudomonas aeruginosa
Experiment: Burn wound infection model (mouse superficial skin model, thermal injury), log reduction of Pseudomonas aeruginosa
Assay type: in vivo, Swiss albino mice
Conditions: orally 25 mg/kg body weight, day 6
Procedure: Swiss albino mice were put into six groups and their backs were shaven. Thermal injury was induced in the shaven area by applying a heated brass rod on the back of the animals for 15 seconds to 20 seconds. For establishment of a topical infection, an inoculum containing approximately 2×10^5 bacteria (Pseudomonas aeruginosa) was injected subcutaneously (100 μL) on the sites of the burns. One hour post infection, the mice were treated using 100 mg of cream formulations of different drug concentrations. In case of all the cream formulations, 100 mg cream was applied topically twice daily for 5 days. One of the groups of mice was given Levofloxacin orally at 25 mg/kg body weight as a reference standard.

C[C@H]1COc2c(N3CCN(C)CC3)c(F)cc3c(=O)c(C(=O)O)cn1c23 [Levofloxacin]
Log reduction of microbial count: 5.53 log10
